For the experiment, the target named is factor Xa (Homo sapiens, UniProt P00742). Briefly: Factor Xa inhibition (FXa-IC50). It counts as biochemical. An excerpt: The inhibition of factor Xa by the compounds according to the invention and the measurement of the anticoagulant and antithrombotic activity can be determined by conventional in-vitro or in-vivo methods. A suitable method is described, for example, by J. Hauptmann et al. in Thrombosis and Haemostasis 1990, 63, 220-223.
The inhibition of factor Xa can be measured, for example by the method of T. Hara et al. in Thromb. Haemostas. 1994, 71, 314-319.

The IC50 is the point on the concentration scale where inhibition reaches its midpoint.

Sequence of factor Xa (P00742 235-488 limits assumed): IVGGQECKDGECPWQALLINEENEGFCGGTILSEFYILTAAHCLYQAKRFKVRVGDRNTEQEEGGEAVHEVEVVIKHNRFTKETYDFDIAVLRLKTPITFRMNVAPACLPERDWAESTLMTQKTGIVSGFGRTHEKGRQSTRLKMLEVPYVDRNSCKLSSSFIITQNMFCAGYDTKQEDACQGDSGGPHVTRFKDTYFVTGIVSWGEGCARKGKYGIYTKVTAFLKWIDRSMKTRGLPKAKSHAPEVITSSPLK
Sequence of factor Xa (P00742 41-179 partner limits assumed): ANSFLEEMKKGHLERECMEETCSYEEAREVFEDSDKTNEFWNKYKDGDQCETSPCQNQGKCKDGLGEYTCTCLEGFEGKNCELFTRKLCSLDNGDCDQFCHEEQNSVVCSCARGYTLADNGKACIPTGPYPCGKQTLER

`CCOC(=O)O[C@@H]1C[C@H](C(=O)Nc2ccc(N3CCOCC3=O)cc2)N(C(=O)Nc2ccc(Cl)cc2)C1` [Compound A1, N-1-(4-chlorophenyl)-4-(ethoxycarbonyloxy)-N-2-[4-(3-oxomorpholin-4-yl)phenyl)-(2R,4R)-pyrrolidine-1,2-dicarboxamide] had an IC50 of 2 nM. This lies in the single-digit nanomolar range.

These data come from patent publication US20080081814A1, “Carbonyl Compounds Which Can be Used as Inhibitors of Coagulation Factor Xa” (priority 2004, published 2008).
